Results on one compound are retold here after patent publication US20120329761A1, “USE OF TIGECYCLINE FOR TREATMENT OF CANCER” (UNIVERSITY HEALTH NETWORK, priority 2010, published 2012).

Molecules are shown by their SMILES.

For data set [1] the following is noted: rat, in vivo, 30 mg/kg/day; cited from earlier work.
Data set [2] concerns Cox-1, Cox-2, and Cox-4 mRNA. Briefly: Quantitative RT-PCR of Cox mRNA. In kind it is cell-based, human. The settings on record: TEX and primary AML cells, 2.5 μM and 5 μM. The protocol:
(§1) FIG. 4. […] (A) Cells from TEX, OCI-AML2 and two primary AML patients were treated with increasing concentrations (2.5 μM and 5 μM) of tigecycline for 36 and 48 hours of tigecycline. Total proteins were extracted and analyzed by western blotting for Cox-1, Cox-2, Cox-4, grp78, XIAP, actin and tubulin. (B) TEX and AML patient cells were treated with increasing concentrations (2.5 μM and 5 μM) of tigecycline. Cox-1, Cox-2, and Cox-4 mRNA expression relative 18S was determined by quantitative RT-PCR. Data is shown as mean±SD. (C) TEX cells were treated with increasing concentrations of tigecycline and chloramphenicol (CAP) for 72 hours. Complex I, II and IV enzyme activity relative to citrate synthase activity was determined as described in materials and methods. (D) Cells from TEX, primary AML patients, and normal donors were treated with increasing concentrations of tigecycline. Mitochondrial membrane potential (Δψ) was determined by staining cells with JC-1 dye, and flow cytometry analysis (Red/Green ratio). Reactive oxygen species generation (ROS) was determined by staining with h2-DCFDA and Dihydroethidium (DHE).

The subject of data set [3] is OCI-AML2 human leukemia cells. In kind it is in vivo, SCID mice. The procedure: FIG. 3. Tigecycline has anti-leukemia activity in vivo. (A, B) Human leukemia (OCI-AML2) were injected subcutaneously into the flank of SCID mice. Seven days after injection, once tumors were palpable, mice were treated with tigecycline (50 mg/kg or 100 mg/kg twice daily by i.p. injection) or vehicle control (n=10 per group). Fourteen days after injection of cells, mice were sacrificed, tumors excised and the volume and mass of the tumors were measured. The tumor mass and the mean volume+SD are shown. Differences in tumor volume and mass were analyzed by an unpaired t-test: * p<0.001. (C) Tumours from two control mice, and three tigecycline-treated mice were excised after 5 days of treatment and total proteins were extracted and analyzed by western blotting for Cox-1, Cox-2, Cox-4, and tubulin. (D) Primary cells from three AML patients were injected intra-femorally into the right femur of female sub-lethally irradiated NOD/SCID mice. Three weeks after injection mice were treated with tigecycline (100 mg/kg by i.p. injection daily) or vehicle control (n=10 per group) for three weeks. Following treatment, human leukemia cell engraftment in the injected right femur was measured by FACS analysis for human CD45^+CD19^−CD33^+ cells. Data represent mean±SD of engrafted human cells. Cells from one patient experiment were used to assess secondary engraftment in a second generation of NOD/SCID mice. Equal numbers of viable leukemia cells from bone marrow of control and tigecycline treated mice were injected into irradiated NOD/SCID mice, which were not treated with tigecycline. Six weeks later, human leukemia cell engraftment in the injected right femur was measured by FACS analysis for human CD45^+CD19^−CD33^+ cells. (* p<0.005, Student's t-test).
OCI-AML2 human leukemia cells (1×10^6) were injected subcutaneously into the flanks of SCID mice (Ontario Cancer Institute, Toronto, ON). Seven days after injection, once tumours were palpable, mice were treated with tigecycline twice daily (50 mg/kg or 100 mg/kg by i.p. injection) or vehicle control (n=10 per group) for 14 days. Tumor volume (tumor length×width^2×0.5236) was measured three times a week using calipers. Twenty-one days after injection of cells, mice were sacrificed, tumors excised and the volume and mass of the tumors were measured.
Given the effects of tigecycline as a potential anti-leukemia agent, tigecycline in mouse models of leukemia was evaluated. To evaluate the anti-tumor efficacy of tigecycline in vivo, human OCI-AML2 leukemia cells were injected into the flank of SCID mice. […] Tumor volume and mass were measured over time (FIGS. 3A, B). […]

Data set [4] concerns TEX cells. The experiment in a line: ROS generation, DCF-DA and DHE staining. It is filed as cell-based, human. Conditions: time-points up to 24 hours. The protocol: as §1
A byproduct of the mitochondrial enzyme activities of the electron transport chain is the generation of reactive oxygen species (ROS). […] Therefore, the role of tigecycline on ROS generation in leukemia cells by analyzing hydrogen peroxide ions (H2O2) using a dichlorofluorescein dye (DCF-DA), and superoxide anions using dihydroethidium (DHE) was examined.

Data set [5] deals with normal hematopoietic cells. Briefly: Methylcellulose colony formation assay. Conditions: 5 μM, normal hematopoietic cells n=5, colonies at 14 days. It is filed as cell-based, human. The procedure:
(§2) FIG. 2. Tigecycline induces cell death and inhibits clonogenic growth in primary AML cells preferential over normal hematopoietic cells. Mononuclear cells from peripheral blood of leukemia patients (blast count >80%) and normal G-CSF expanded donors was treated with increasing concentrations of tigecycline for 48 hours. Cell viability was measured by Annexin-PI flow cytometry staining. Cell viability is expressed as a mean percentage plus or minus SD (n=3) relative to DMSO-treated cells. Mononuclear cells from primary AML patient samples (A, B) and normal peripheral blood cells (C) were plated in methylcelluose with 5 μM of Tigecycline. (D) Colony forming units were counted at 7 days (AML) and 14 days (Normal) post plating. […]
(§3) To assess clonogenic growth, primary AML cells (1.0×10^5/mL) or granulocyte colony-stimulating factor (G-CSF) mobilized PBSCs (1.0×10^5/mL) were plated in duplicate with increasing concentrations of tigecycline in MethoCult GF H4434 medium (StemCell Technologies, Vancouver, BC) containing 1% methycellulose in IMDM, 30% FCS, 1% bovine serum albumin, 3 U/mL of recombinant human erythropoietin, 10^−4 M of 2-mercaptoethanol, 2 mM of L-glutamine, 50 ng/mL of recombinant human stem cell factor, 10 ng/mL of GM-CSF, and 10 ng/mL of rh IL-3). Seven days (AML samples) or 14 days (normal PBCS) after plating, the number of colonies was counted as previously described^31.

The test system of data set [6] is primary AML patient samples. Briefly: Methylcellulose colony formation assay. In kind it is cell-based, human. Conditions: 5 μM, primary AML n=7, colonies at 7 days. The procedure:
as §2, §3

The mark [7] stands for this setting: 50 mg/kg or 100 mg/kg twice daily i.p. for 14 days, p<0.001.

`CN(C)c1cc(NC(=O)CNC(C)(C)C)c(O)c2c1C[C@H]1C[C@H]3[C@H](N(C)C)C(O)=C(C(N)=O)C(=O)[C@@]3(O)C(O)=C1C2=O` [tigecycline]: the toxicology findings entry in data set [1] was “reversible anemia, thrombocytopenia, and leucopenia with a hypocellular bone marrow”. The “Cox-1, Cox-2, Cox-4 mRNA expression relative 18S” value in data set [2] is “preferential increased mRNA expression of mitochondrial-encoded genes Cox-1, Cox-2, over the nuclear-encoded gene Cox-4”. The “expression of cytochrome C oxidase subunits in tumours” value in data set [3] (50 mg/kg bid for 5 days, western blotting) is “preferential decreased expression of mitochondrially translated subunits Cox-1 and Cox-2”. In data set [3] (setting [7]), the “decrease in tumor mass vs vehicle control” value was “up to 70%”. For the same compound, the “decrease in tumor volume vs vehicle control” value in data set [3] (setting [7]) is listed as “up to 70%”. Also, the “toxicity in xenograft mice” value in data set [3] (mouse, in vivo) is on record as “No evidence of toxicity”. Also, in data set [4], the ROS generation entry was “no observed increase in ROS generation”. Moreover, the entries for the “reduction of clonogenic growth” value in data set [5] and in data set [6] were 34±5% and 93±4%, respectively.
